In paper PMC10526248, “Zeolitic Imidazolate Framework-8 Composite-Based Enzyme-Linked Aptamer Assay for the Sensitive Detection of Deoxynivalenol” (Biosensors, 2023):

Target: T1, horseradish peroxidase (HRP) (Armoracia rusticana, UniProt P00433)
T1 construct: gene PRXC1A; free enzyme for this row
T1 sequence (P00433 31-338): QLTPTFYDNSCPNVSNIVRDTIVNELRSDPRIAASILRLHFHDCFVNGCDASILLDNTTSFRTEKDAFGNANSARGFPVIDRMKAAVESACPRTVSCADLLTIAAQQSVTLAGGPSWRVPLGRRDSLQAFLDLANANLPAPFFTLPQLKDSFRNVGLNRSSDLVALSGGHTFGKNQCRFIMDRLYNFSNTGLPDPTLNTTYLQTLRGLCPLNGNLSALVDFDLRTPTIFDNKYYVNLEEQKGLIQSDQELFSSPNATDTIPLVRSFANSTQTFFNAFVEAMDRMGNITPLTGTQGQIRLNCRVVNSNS
Test: TMB oxidation, absorbance at […] nm after acid stop
Assay type: biochemical
Conditions: free HRP; co-substrate H2O2; oxidation also seen with ZIF-8-encapsulated HRP

Cc1cc(-c2cc(C)c(N)c(C)c2)cc(C)c1N [TMB, 3,3′,5,5′-Tetramethylbenzidine]
TMB oxidation, absorbance at 450 nm after acid stop: HRP, HRP@ZIF-8, HRP&Au@ZIF-8 and HRP&Au@ZIF-8/cDNA were all able to catalyze TMB oxidation
